Values of other authors as cited in PubChem BioAssay AID1259409 (Chemical Carcinogenesis Research Information System (CCRIS), 2018).
Several values for one entry are separate records, joined by “and”; a condition that tells them apart may be missing. Equal entries are not always repeated.

Test system: rodent chemically induced tumor inhibition, incidence and multiplicity
Experiment: CCRIS tumor inhibitor studies
Conditions: Route [Inhibitor]: ORAL

NC(=O)c1cccnc1
tumour outcome (control, treated, inhibition, significance) (Carcinogen: 3'-METHYL-4-DIMETHYLAMINOAZOBENZENE, 55-80-1, Dose [Inhibitor]: 0.29% IN DIET DAILY FOR 4 WK STARTING 4 WK AFTER THE START OF CARCINOGEN TREATMENT (STUDY DURATION: 20 WK), Species: RAT, Target Tissue: Type of Lesion: LIVER: TUMOR, Dose [Carcinogen]: 0.064% IN DIET DAILY FOR 4 WK THEN A 4 WK CARCINOGEN-FREE PERIOD FOLLOWED BY 0.048% FOR AN ADDITIONAL 4 WK, Promoter: NONE USED): 4/10 (40%), 10/11 (91%), -128%, not calculated | tumour outcome (control, treated, inhibition, significance) (Carcinogen: 3'-METHYL-4-DIMETHYLAMINOAZOBENZENE, 55-80-1, Dose [Inhibitor]: 0.29% IN DIET DAILY FOR 4 WK STARTING AFTER COMPLETION OF CARCINOGEN TREATMENT (STUDY DURATION: 20 WK), Species: RAT, Target Tissue: Type of Lesion: LIVER: TUMOR, Dose [Carcinogen]: 0.064% IN DIET DAILY FOR 4 WK, Promoter: NONE USED): 7/15 (47%), 0/17 (0%), 100%, not calculated | tumour outcome (control, treated, inhibition, significance) (Carcinogen: 3'-METHYL-4-DIMETHYLAMINOAZOBENZENE, 55-80-1, Dose [Inhibitor]: 0.29% IN DIET DAILY FOR 4 WK STARTING AFTER COMPLETION OF THE FIRST 4 WK OF CARCINOGEN TREATMENT (STUDY DURATION: 20 WK), Species: RAT, Target Tissue: Type of Lesion: LIVER: TUMOR, Dose [Carcinogen]: 0.064% IN DIET DAILY FOR 4 WK BEFORE AND ANOTHER 4 WK AFTER AGENT TREATMENT, Promoter: NONE USED): 7/15 (47%), 9/14 (64%), -36%, not calculated and 7/9 (78%), 6/9 (67%), 14%, not calculated | tumour outcome (control, treated, inhibition, significance) (Carcinogen: 7,12-DIMETHYLBENZ[A]ANTHRACENE, 57-97-6, Dose [Inhibitor]: 0.2% IN DRINKING WATER DAILY STARTING 4 WK BEFORE CARCINOGEN TREATMENT AND CONTINUING FOR DURATION OF THE STUDY (STUDY D, Species: MOUSE, Strain/Sex: 101/MALE, FEMALE, Target Tissue: Type of Lesion: SKIN: PAPILLOMA, Dose [Carcinogen]: 225 UG IN 0.15 ML ACETONE ONCE, Promoter: CROTON OIL, 8001-28-3): 17/19 (89%), 17/19 (89%), 0%, not calculated | tumour outcome (control, treated, inhibition, significance) (Carcinogen: N-NITROSOBIS(2-OXOPROPYL)AMINE, 60599-38-4, Dose [Inhibitor]: 0, 0.2% IN DRINKING WATER FOR 49 WK BEGINNING POST CARCINOGEN TREATMENT (STUDY DURATION: 52 WK), Species: HAMSTER, Strain/Sex: SYRIAN/FEMALE, Target Tissue: Type of Lesion: PANCREAS: ADENOCARCINOMA, Dose [Carcinogen]: 10 MG/KG 1/WK FOR 3 WK, Promoter: NONE USED): 18/30 (60%), 18/29 (62%), -3%, not significant | tumour outcome (control, treated, inhibition, significance) (Carcinogen: N-NITROSOBIS(2-OXOPROPYL)AMINE, 60599-38-4, Dose [Inhibitor]: 0, 0.2% IN DRINKING WATER FOR 49 WK POST CARCINOGEN TREATMENT (STUDY DURATION: 52 WK), Species: HAMSTER, Strain/Sex: SYRIAN GOLDEN/FEMALE, Target Tissue: Type of Lesion: KIDNEY: NEPHROBLASTOMA, Dose [Carcinogen]: 10 MG/KG BW 1/WK FOR FIRST 3 WK OF STUDY DURATION, Promoter: NONE): 2/30 (7%), 0/29 (0%), 100%, not significant | outcome (Carcinogen: N-NITROSOBIS(2-OXOPROPYL)AMINE, 60599-38-4, Dose [Inhibitor]: 0, 0.2% IN DRINKING WATER FOR 49 WK POST CARCINOGEN TREATMENT (STUDY DURATION: 52 WK), Species: HAMSTER, Strain/Sex: SYRIAN GOLDEN/FEMALE, Target Tissue: Type of Lesion: KIDNEY: RENAL CELL ADENOMA, Dose [Carcinogen]: 10 MG/KG BW 1/WK FOR FIRST 3 WK OF STUDY DURATION, Promoter: NONE): 0/30 (0%), 1/29 (3%),-%, not significant | tumour outcome (control, treated, inhibition, significance) (Carcinogen: N-NITROSOBIS(2-OXOPROPYL)AMINE, 60599-38-4, Dose [Inhibitor]: 0, 0.2% IN DRINKING WATER FOR 49 WK POST CARCINOGEN TREATMENT (STUDY DURATION: 52 WK), Species: HAMSTER, Strain/Sex: SYRIAN GOLDEN/FEMALE, Target Tissue: Type of Lesion: KIDNEY: RENAL CELL CARCINOMA, Dose [Carcinogen]: 10 MG/KG BW 1/WK FOR FIRST 3 WK OF STUDY DURATION, Promoter: NONE): 1/30 (3%), 1/29 (3%), 0%, not significant | tumour outcome (control, treated, inhibition, significance) (Carcinogen: N-NITROSOBIS(2-OXOPROPYL)AMINE, 60599-38-4, Dose [Inhibitor]: 0, 0.2% IN DRINKING WATER FOR 49 WK POST CARCINOGEN TREATMENT (STUDY DURATION: 52 WK), Species: HAMSTER, Strain/Sex: SYRIAN GOLDEN/FEMALE, Target Tissue: Type of Lesion: LIVER: CHOLANGIOCELLULAR ADENOMA, Dose [Carcinogen]: 10 MG/KG BW 1/WK FOR FIRST 3 WK OF STUDY DURATION, Promoter: NONE): 1/30 (3%), 2/29 (7%), -133%, not significant | outcome (Carcinogen: N-NITROSOBIS(2-OXOPROPYL)AMINE, 60599-38-4, Dose [Inhibitor]: 0, 0.2% IN DRINKING WATER FOR 49 WK POST CARCINOGEN TREATMENT (STUDY DURATION: 52 WK), Species: HAMSTER, Strain/Sex: SYRIAN GOLDEN/FEMALE, Target Tissue: Type of Lesion: LIVER: CHOLANGIOCELLULAR CARCINOMA, Dose [Carcinogen]: 10 MG/KG BW 1/WK FOR FIRST 3 WK OF STUDY DURATION, Promoter: NONE): 0/30 (0%), 5/29 (17%), -%, p<0.05 | outcome (Carcinogen: N-NITROSOBIS(2-OXOPROPYL)AMINE, 60599-38-4, Dose [Inhibitor]: 0, 0.2% IN DRINKING WATER FOR 49 WK POST CARCINOGEN TREATMENT (STUDY DURATION: 52 WK), Species: HAMSTER, Strain/Sex: SYRIAN GOLDEN/FEMALE, Target Tissue: Type of Lesion: LIVER: CYSTADENOMA, Dose [Carcinogen]: 10 MG/KG BW 1/WK FOR FIRST 3 WK OF STUDY DURATION, Promoter: NONE): 0/30 (0%), 0/29 (0%), 0%, not significant | tumour outcome (control, treated, inhibition, significance) (Carcinogen: N-NITROSOBIS(2-OXOPROPYL)AMINE, 60599-38-4, Dose [Inhibitor]: 0, 0.2% IN DRINKING WATER FOR 49 WK POST CARCINOGEN TREATMENT (STUDY DURATION: 52 WK), Species: HAMSTER, Strain/Sex: SYRIAN GOLDEN/FEMALE, Target Tissue: Type of Lesion: LIVER: HEPATOCELLULAR ADENOMA, Dose [Carcinogen]: 10 MG/KG BW 1/WK FOR FIRST 3 WK OF STUDY DURATION, Promoter: NONE): 2/30 (7%), 4/29 (14%), -100%, not significant | tumour outcome (control, treated, inhibition, significance) (Carcinogen: N-NITROSOBIS(2-OXOPROPYL)AMINE, 60599-38-4, Dose [Inhibitor]: 0, 0.2% IN DRINKING WATER FOR 49 WK POST CARCINOGEN TREATMENT (STUDY DURATION: 52 WK), Species: HAMSTER, Strain/Sex: SYRIAN GOLDEN/FEMALE, Target Tissue: Type of Lesion: LIVER: HEPATOCELLULAR CARCINOMA, Dose [Carcinogen]: 10 MG/KG BW 1/WK FOR FIRST 3 WK OF STUDY DURATION, Promoter: NONE): 2/30 (7%), 1/29 (3%), 57%, not significant | tumour outcome (control, treated, inhibition, significance) (Carcinogen: N-NITROSOBIS(2-OXOPROPYL)AMINE, 60599-38-4, Dose [Inhibitor]: 0, 0.2% IN DRINKING WATER FOR 49 WK POST CARCINOGEN TREATMENT (STUDY DURATION: 52 WK), Species: HAMSTER, Strain/Sex: SYRIAN GOLDEN/FEMALE, Target Tissue: Type of Lesion: LUNG: ADENOCARCINOMA, Dose [Carcinogen]: 10 MG/KG BW 1/WK FOR FIRST 3 WK OF STUDY DURATION, Promoter: NONE): 11/30 (37%), 8/29 (28%), 24%, not significant | tumour outcome (control, treated, inhibition, significance) (Carcinogen: N-NITROSOBIS(2-OXOPROPYL)AMINE, 60599-38-4, Dose [Inhibitor]: 0, 0.2% IN DRINKING WATER FOR 49 WK POST CARCINOGEN TREATMENT (STUDY DURATION: 52 WK), Species: HAMSTER, Strain/Sex: SYRIAN GOLDEN/FEMALE, Target Tissue: Type of Lesion: LUNG: ADENOMA, Dose [Carcinogen]: 10 MG/KG BW 1/WK FOR FIRST 3 WK OF STUDY DURATION, Promoter: NONE): 15/30 (50%), 18/29 (62%), -24%, not significant | tumour outcome (control, treated, inhibition, significance) (Carcinogen: N-NITROSOBIS(2-OXOPROPYL)AMINE, 60599-38-4, Dose [Inhibitor]: 0, 0.2% IN DRINKING WATER FOR 49 WK POST CARCINOGEN TREATMENT (STUDY DURATION: 52 WK), Species: HAMSTER, Strain/Sex: SYRIAN GOLDEN/FEMALE, Target Tissue: Type of Lesion: LUNG: SQUAMOUS CELL CARCINOMA, Dose [Carcinogen]: 10 MG/KG BW 1/WK FOR FIRST 3 WK OF STUDY DURATION, Promoter: NONE): 2/30 (7%), 0/29 (0%), 100%, not significant | tumour outcome (control, treated, inhibition, significance) (Carcinogen: N-NITROSOBIS(2-OXOPROPYL)AMINE, 60599-38-4, Dose [Inhibitor]: 0, 0.2% IN DRINKING WATER FOR 49 WK POST CARCINOGEN TREATMENT (STUDY DURATION: 52 WK), Species: HAMSTER, Strain/Sex: SYRIAN GOLDEN/FEMALE, Target Tissue: Type of Lesion: PANCREAS (DUCTAL): ADENOCARCINOMA, Dose [Carcinogen]: 10 MG/KG BW 1/WK FOR FIRST 3 WK OF STUDY DURATION, Promoter: NONE): 18/30 (60%), 18/29 (62%), -3%, not significant | tumour outcome (control, treated, inhibition, significance) (Carcinogen: N-NITROSOBIS(2-OXOPROPYL)AMINE, 60599-38-4, Dose [Inhibitor]: 0, 0.2% IN DRINKING WATER FOR 49 WK POST CARCINOGEN TREATMENT (STUDY DURATION: 52 WK), Species: HAMSTER, Strain/Sex: SYRIAN GOLDEN/FEMALE, Target Tissue: Type of Lesion: THYROID: ADENOMA, Dose [Carcinogen]: 10 MG/KG BW 1/WK FOR FIRST 3 WK OF STUDY DURATION, Promoter: NONE): 1/30 (3%), 0/29 (0%), 100%, not significant
